The text below walks through data of patent US20230406860A1, “HETEROCYCLIC SPIRO COMPOUNDS AND METHODS OF USE” (AMGEN INC., priority 2020, published 2023).

Where only a bound is given, the exact number is not on record here.

For orientation: IC50 means the concentration that gives 50% inhibition.

In experiment [1] the test system is extracellular signal-regulated kinase (ERK). Particulars: preclinical studies; cited from earlier work.
The target of experiment [2] is GDP-bound KRAS protein (aa 1-169), containing both G12C and C118A amino acid substitutions (Homo sapiens, UniProt P01116, C118A/G12C). As to the kind of experiment: Coupled nucleotide exchange assay (SOS-mediated, AlphaScreen). Type of experiment: biochemical. The following applies: 2 h compound pre-incubation; read-out: Avg 2 h Coupled exchange IC50. The procedure: Coupled Nucleotide Exchange Assay:
For all subsequent steps, DTT was added to the reaction buffer at a final concentration of 1 mM. […] The assay plates were then read on a plate reader measuring luminescence signal. Signal intensity of compound-containing wells were normalized to DMSO control, and data were analyzed using a 4-parameter logistic model to calculate IC50 values.

Experiment [3] deals with MIA PaCa-2 (human pancreatic carcinoma) cells. As to the kind of experiment: Cell viability assay (CellTiter-Glo), MIA PaCa-2. In kind it is cell-based. The following applies: 72 h. Summed up: (§1)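 RPMI 1640/10% FBS; seed 1.67E+04 cells/mL, o/n 37° C., 5% CO2; serial-dilution cmpd 72 h; CellTiter-Glo luminescence vs DMSO; 4-parameter logistic fit → IC50.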
Experiment [4] deals with A549 (human lung carcinoma) cells. As to the kind of experiment: Cell viability assay (CellTiter-Glo), A549. Type of experiment: cell-based. Particulars: 72 h. The essentials:
as §1
(ATP-based viability assays read luminescence as a measure of living cells.)

Sequence of GDP-bound KRAS protein (aa 1-169), containing both G12C and C118A amino acid substitutions (P01116 1-169 isoform P01116-2 G12C/C118A): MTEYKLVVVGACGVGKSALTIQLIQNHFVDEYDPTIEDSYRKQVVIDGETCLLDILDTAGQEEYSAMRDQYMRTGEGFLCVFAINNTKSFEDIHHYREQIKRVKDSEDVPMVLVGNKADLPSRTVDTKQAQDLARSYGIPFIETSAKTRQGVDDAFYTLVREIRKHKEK

Consider `C=CC(=O)N1CCN(c2nc(=O)n(-c3c(C)ccnc3C(C)C)c3nc(-c4c(O)cccc4F)c(F)cc23)[C@@H](C)C1` [AMG 510], for which the “inhibition of ERK phosphorylation” value in experiment [1] is given as “inhibited nearly all detectable phosphorylation”.

Take `C=CC(=O)N1CC2(CCN(c3nc4c(c(N[C@H](CC(=O)NC)Cc5ccccc5)n3)CCC(C)(C)C4)C2)C1` [Example 1-50, (3S)-3-((7,7-dimethyl-2-(2-(2-propenoyl)-2,6-diazaspiro[3.4]octan-6-yl)-5,6,7,8-tetrahydro-4-quinazolinyl)amino)-N-methyl-4-phenylbutanamide]: the results for the IC50 in experiment [2], in experiment [3] and in experiment [4] were 1310 nM, 587 nM and over 25000 nM, respectively.

As to `C=CC(=O)N1CC2(CCN(c3nc4c(c(N[C@H](Cc5nnc(C)s5)CC(C)C)n3)CCC(C)(C)C4)C2)C1` [Example 1-51, 1-(6-(7,7-dimethyl-4-(((2S)-4-methyl-1-(5-methyl-1,3,4-thiadiazol-2-yl)-2-pentanyl)amino)-5,6,7,8-tetrahydro-2-quinazolinyl)-2,6-diazaspiro[3.4]octan-2-yl)-2-propen-1-one], the half-maximal inhibitory concentration (IC50) in experiment [2] is 50 nM; in experiment [3], 3540 nM; in experiment [4], over 5000 nM.

With `C=CC(=O)N1CC2(CCN(c3nc4c(c(N[C@H](Cc5nnc(C)o5)CC(C)C)n3)CCC(C)(C)C4)C2)C1` [Example 1-52, 1-(6-(7,7-dimethyl-4-(((2S)-4-methyl-1-(5-methyl-1,3,4-oxadiazol-2-yl)-2-pentanyl)amino)-5,6,7,8-tetrahydro-2-quinazolinyl)-2,6-diazaspiro[3.4]octan-2-yl)-2-propen-1-one], the results for the IC50 in experiment [2], in experiment [3] and in experiment [4] were 39 nM, 1410 nM and over 5000 nM, respectively.

Consider `C=CC(=O)N1CC2(CCN(c3nc4c(c(N[C@H](Cc5cc(C)on5)CC(C)C)n3)CCC(C)(C)C4)C2)C1` [Example 1-53, 1-(6-(7,7-dimethyl-4-(((2S)-4-methyl-1-(5-methyl-1,2-oxazol-3-yl)-2-pentanyl)amino)-5,6,7,8-tetrahydro-2-quinazolinyl)-2,6-diazaspiro[3.4]octan-2-yl)-2-propen-1-one], for which the values for the IC50 in experiment [2], in experiment [3] and in experiment [4] were 24 nM, 994 nM and over 5000 nM, respectively.

Turning to `C=CC(=O)N1CC2(CCN(c3nc4c(c(N[C@H](Cc5ncc[nH]5)CC(C)C)n3)CCC(C)(C)C4)C2)C1` [Example 1-54, 1-(6-(4-(((2S)-1-(1H-imidazol-2-yl)-4-methyl-2-pentanyl)amino)-7,7-dimethyl-5,6,7,8-tetrahydro-2-quinazolinyl)-2,6-diazaspiro[3.4]octan-2-yl)-2-propen-1-one], the half-maximal inhibitory concentration (IC50) was 49 nM in experiment [2], 1320 nM in experiment [3] and over 5000 nM in experiment [4].

In the case of `C=CC(=O)N1CC2(CCN(c3nc4c(c(N[C@H](Cc5c[nH]nn5)CC(C)C)n3)CCC(C)(C)C4)C2)C1` [Example 1-55, 1-(6-(7,7-dimethyl-4-(((2S)-4-methyl-1-(1H-1,2,3-triazol-4-yl)-2-pentanyl)amino)-5,6,7,8-tetrahydro-2-quinazolinyl)-2,6-diazaspiro[3.4]octan-2-yl)-2-propen-1-one], the results for the 50% inhibitory concentration (IC50) in experiment [2], in experiment [3] and in experiment [4] were 57 nM, 1270 nM and over 5000 nM, respectively.

For the molecule `C=CC(=O)N1CC2(CCN(c3nc(N[C@H](CC(=O)NC)CC(C)C)c4ccncc4n3)C2)C1` [Example 1-56], the figures for the IC50 in experiment [2], in experiment [3] and in experiment [4] were 4840 nM, over 5000 nM and over 25000 nM, respectively.

On to `C=CC(=O)N1CC2(CCN(c3nc4c(c(N[C@H](Cc5ncco5)CC(C)C)n3)CCCC4)C2)C1` [Example 1-57, 1-(6-(4-(((2S)-4-methyl-1-(1,3-oxazol-2-yl)-2-pentanyl)amino)-5,6,7,8-tetrahydro-2-quinazolinyl)-2,6-diazaspiro[3.4]octan-2-yl)-2-propen-1-one], for which the figures for the IC50 in experiment [2], in experiment [3] and in experiment [4] were 2100 nM, 2490 nM and 17900 nM, respectively.

For `C=C(C(=O)N1CC2(CCN(c3nc(N[C@H](CC(=O)NC)CC(C)C)c4ccc(C)cc4n3)C2)C1)C(F)(F)F` [Example 1-58, (3S)-N,5-dimethyl-3-((7-methyl-2-(2-(2-(trifluoromethyl)-2-propenoyl)-2,6-diazaspiro[3.4]octan-6-yl)-4-quinazolinyl)amino)hexanamide], the concentration for half-maximal inhibition (IC50) is 403 nM in experiment [2], 1840 nM in experiment [3] and 13500 nM in experiment [4].

With `C=CC(=O)N1CC2(CCN(c3nc(N[C@H](CC(=O)NC)CC(C)C)c4ccc(-c5nccs5)cc4n3)C2)C1` [Example 1-59, (3S)-N,5-dimethyl-3-((2-(2-(2-propenoyl)-2,6-diazaspiro[3.4]octan-6-yl)-7-(1,3-thiazol-2-yl)-4-quinazolinyl)amino)hexanamide], the 50% inhibitory concentration (IC50) in experiment [2] came out at 10 nM; in experiment [3], 16 nM; in experiment [4], 7860 nM.

Take `C=CC(=O)N1CC2(CCN(c3nc4c(c(N[C@@H](CC(C)C)C(=O)NC)n3)CCCC4)C2)C1` [Example 1-60, (S)-2-((2-(2-acryloyl-2,6-diazaspiro[3.4]octan-6-yl)-5,6,7,8-tetrahydroquinazolin-4-yl)amino)-N,4-dimethylpentanamide]: the IC50 in experiment [2] is 8280 nM; in experiment [3], 7060 nM; in experiment [4], 17900 nM.
